Measurements taken from US11911386B2, “Methods of treating B-cell proliferative disorder” (BeiGene Switzerland GmbH, priority 2022, dated 2024).
Read-outs that look alike come from different tables or passages of the source.

[1] = any grade, listed as Zanubrutinib
[2] = grade ≥3, listed as Zanubrutinib
[3] = leading to treatment discontinuation

## C=CC(=O)N1CCC([C@@H]2CCNc3c(C(N)=O)c(-c4ccc(Oc5ccccc5)cc4)nn32)CC1 [zanubrutinib, (S)-7-(1-acryloylpiperidin-4-yl)-2-(4-phenoxyphenyl)-4,5,6,7-tetrahydropyrazolo[1,5-a]pyrimidine-3-carboxamide]
ITT
  Treatment discontinuation due to adverse events: 16.2%
Any grade
  Anemia AESI: 50 (15.4) n (%)
  Anemia TEAE: 49 (15.1) n (%)
  Arthralgia TEAE: 47 (14.5) n (%)
  Atrial fibrillation TEAE: 15 (4.6) n (%)
  Atrial fibrillation and flutter AESI: 5.2 n (%)
  COVID-19 TEAE: 23.1 n (%)
  Contusion TEAE: 44 (13.6) n (%)
  Cough TEAE: 38 (11.7) n (%)
  Diarrhea TEAE: 16.0 n (%)
  Fatigue TEAE: 31 (9.6) n (%)
  Hemorrhage AESI: 137 (42.3) n (%)
  Hypertension AESI: 23.5 n (%)
  Hypertension TEAE: 21.9 n (%)
  Infections AESI: 71.3 n (%)
  Major hemorrhage AESI: 12 (3.7) n (%)
  Muscle spasms TEAE: 10 (3.1) n (%)
  Neutropenia AESI: 29.3 n (%)
  Neutropenia TEAE: 22.8 n (%)
  Opportunistic infection AESI: 7 (2.2%) n (%)
  Pneumonia TEAE: 34 (10.5) n (%)
  Pyrexia TEAE: 27 (8.3) n (%)
  Rash TEAE: 33 (10.2) n (%)
  Secondary primary malignancies AESI: 40 (12.3) n (%)
  Skin cancers AESI: 21 (6.5) n (%)
  Thrombocytopenia AESI: 42 (13.0) n (%)
  Tumor lysis syndrome AESI: 1 (0.3) n (%)
  Upper respiratory tract infection TEAE: 21.0 n (%)
  ≥1 AESI: 294 (90.7) n (%)
  ≥1 TEAE: 318 (98.1) n (%)
[1]
  Atrial fibrillation and flutter AESI: 17 (5.2) n (%)
  COVID-19 TEAE: 75 (23.1) n (%)
  Diarrhea TEAE: 52 (16.0) n (%)
  Hypertension AESI: 76 (23.5) n (%)
  Hypertension TEAE: 71 (21.9) n (%)
  Infections AESI: 231 (71.3) n (%)
  Neutropenia AESI: 95 (29.3) n (%)
  Neutropenia TEAE: 74 (22.8) n (%)
  Opportunistic infection AESI: 7 (2.2) n (%)
  Upper respiratory tract infection TEAE: 68 (21.0) n (%)
Cardiac AE
  Acute coronary syndrome: 1 (0.3)
  Acute myocardial infarction: 1 (0.3)
  Angina pectoris: 4 (1.2)
  Aortic valve incompetence: 0
  Aortic valve stenosis: 1 (0.3)
  Arrhythmia: 1 (0.3)
  Arrhythmia supraventricular: 3 (0.9)
  Arteriosclerosis coronary artery: 1 (0.3)
  Atrial fibrillation: 15 (4.6)
  Atrial flutter: 2 (0.6)
  Atrial tachycardia: 0
  Atrioventricular block: 0
  Atrioventricular block first degree: 5 (1.5)
  Bradyarrhythmia: 1 (0.3)
  Bradycardia: 0
  Bundle branch block left: 3 (0.9)
  Bundle branch block right: 2 (0.6)
  Cardiac arrest: 0
  Cardiac discomfort: 0
  Cardiac disorder: 0
  Cardiac failure: 5 (1.5)
  Cardiac failure acute: 0
  Cardiac failure chronic: 0
  Cardiac failure congestive: 1 (0.3)
  Congestive cardiomyopathy: 0
  Coronary artery disease: 2 (0.6)
  Coronary artery insufficiency: 1 (0.3)
  Defect conduction intraventricular: 1 (0.3)
  Dilatation atrial: 1 (0.3)
  Extrasystoles: 1 (0.3)
  Left atrial hypertrophy: 1 (0.3)
  Left ventricular dysfunction: 1 (0.3)
  Left ventricular failure: 1 (0.3)
  Mitral valve incompetence: 1 (0.3)
  Myocardial fibrosis: 1 (0.3)
  Myocardial infarction: 1 (0.3)
  Myocardial ischemia: 3 (0.9)
  Palpitations: 9 (2.8)
  Pericardial effusion: 1 (0.3)
  Sinoatrial block: 1 (0.3)
  Sinus arrhythmia: 1 (0.3)
  Sinus bradycardia: 5 (1.5)
  Sinus node dysfunction: 0
  Sinus tachycardia: 4 (1.2)
  Supraventricular extrasystoles: 4 (1.2)
  Supraventricular tachycardia: 2 (0.6)
  Tachycardia: 1 (0.3)
  Ventricular arrhythmia: 2 (0.6)
  Ventricular extrasystoles: 3 (0.9)
  Ventricular fibrillation: 0
  Ventricular hypokinesia: 1 (0.3)
Grade ≥3
  Anemia AESI: 7 (2.2) n (%)
  Atrial fibrillation and flutter AESI: 2.5 n (%)
  Hemorrhage AESI: 11 (3.4) n (%)
  Hypertension AESI: 15.1 n (%)
  Infections AESI: 26.5 n (%)
  Major hemorrhage AESI: 11 (3.4) n (%)
  Neutropenia AESI: 68 (21.0) n (%)
  Opportunistic infection AESI: 5 (1.5) n (%)
  Secondary primary malignancies AESI: 22 (6.8) n (%)
  Skin cancers AESI: 7 (2.2) n (%)
  Thrombocytopenia AESI: 11 (3.4) n (%)
  Tumor lysis syndrome AESI: 1 (0.3) n (%)
  ≥1 AESI: 186 (57.4) n (%)
[2]
  Atrial fibrillation and flutter AESI: 8 (2.5) n (%)
  Hypertension AESI: 49 (15.1) n (%)
  Infections AESI: 86 (26.5) n (%)
Grade ≥3 TEAE
  Anemia: 7 (2.2)
  Atrial fibrillation: 6 (1.9)
  Blood pressure increased: 4 (1.2)
  COVID-19: 22 (6.8)
  COVID-19 pneumonia: 23 (7.1)
  Neutrophil count decreased: 17 (5.2)
  Pneumonia: 19 (5.9)
  Syncope: 9 (2.8)
  Thrombocytopenia: 9 (2.8)
human, in vivo
  AEs leading to dose reduction: 40 (12.3)
  Bronchopulmonary aspergillosis: 2 (0.6)
  COVID-19 TEAE Grade 3 or higher: 40 (12.3) n (%)
  Fungal abscess central nervous system: 1 (0.3)
  Herpes ophthalmic: 0
  Ophthalmic herpes zoster: 0
  Osteomyelitis fungal: 0
  Pneumonia fungal: 2 (0.6)
  Pneumonia legionella: 0
  Pulmonary tuberculosis: 0
In vivo
  AEs leading to dose interruption: 162 (50.0)
  AEs leading to treatment discontinuation: 50 (15.4)
  Deaths due to cardiac events: no patient receiving zanubrutinib died due to a cardiac disorder AE
  Grade ≥3 TEAE: 218 (67.3)
  Serious AEs: 136 (42.0)
[3]
  Atrial fibrillation: 0
  Cardiac arrest: 0
  Cardiac failure: 0
  Cardiac failure acute: 0
  Congestive cardiomyopathy: 0
  Myocardial infarction: 0
  Palpitations: 0
  Ventricular extrasystoles: 1 (0.3)
  Ventricular fibrillation: 0
Opportunistic infection AESI
  Pneumocystis jirovecii pneumonia: 1 (0.3)
  Pneumonia cryptococcal: 1 (0.3)
